# Laboratory results reported in patent publication US20170105407A1, “COMPOSITIONS AND METHODS FOR ENHANCING RED BLOOD CELL STORAGE TIME AND SURVIVABILITY USING NITRIC OXIDE RELEASING HYBRID HYDROGEL NANOPARTICLES” (ALBERT EINSTEIN COLLEGE OF MEDICINE, INC., priority 2014, published 2017).
# Entries after “also recorded” stand apart in the source; their conditions may differ.
# Tests used:
# stored RBCs [1] = experiment: Storage lesion parameters of stored RBCs over 42 days (2,3-DPG, potassium, pH, free hemoglobin, microparticles); format: cell-based, human, hamster, rat; details: for 2,3 DPG level during storage / Levels of free hemoglobin (hemolysis) during storage / Potassium levels during storage / pH (acidification) during storage: all species (human, hamster, rat), 42 days storage; for Microparticle formation in stored blood: human, hamster, rat blood
# Experimental: NO releasing nanoparticles were added to the blood at 10 mg per 125 mL of whole blood. Stored blood was treated with the nanoparticles once every 48 hours at the above described dosing over a period of 21 days for the in vivo transfusion studies. The storage lesion studies were extended to a period of 6 weeks.
# In this example, the procedure was substantially the same as Example 6.1, except that transfused blood was stored for 42 days, and included human, hamster, and rat blood. FIGS. 5(D)-(F) show potassium levels and hemolysis over a six week period.
# Human RBC units were purchased from the San Diego Blood bank. Blood were preserved in blood collection bags and kept at 4° C.
# Blood was obtained from donor rats (˜300 g) Animals were anaesthetized (pentobarbital 60 mg/kg ip) and a femoral catheter (PE-50) was implanted and blood was drawn into 10 mL syringes containing 1.5 mL of citrate, phosphate, dextrose adenine solution (CPDA-1). Blood was leukoreduced, by passing through a neonatal high efficiency leukocyte reduction filter Purecell NEO (Pall Company, East Hills, N.Y.). The leukoreduced blood was centrifuged for 10 minutes at 1350 rpm and supernatant was partially removed to achieve approximately 75% Hct. Packed cell were transferred under sterile conditions to a preservative free blood collection tube and kept at 4° C.
# Blood was obtained from donor hamsters (˜80 g). Hamsters were anaesthetized (pentobarbital 60 mg/kg ip) and femoral catheter implanted. The blood from three hamsters was drawn into 10 mL syringes containing 1.5 mL CPDA-1, then leukoreduced as described before and centrifuged. Hamster packed cells were preserved in blood collection tube and kept at 4° C.
# RBC = experiment: Mechanical properties (flexibility) of RBCs during storage; format: cell-based; details: at 1 week, 3 weeks, 5 weeks and 6 weeks of storage
# Description: In this example, as shown in FIGS. 16(A)-(D), RBC flexibility is slowed for RBCs treated with NOnps and GSNO.
# stored RBCs [2] = experiment: RBC glycolytic metabolism during storage over 42 days; format: cell-based; details: for ATP produced vs control / Adenine in stored blood vs control / Citrate in stored blood vs control / Glucose in stored blood vs control / Lactate produced vs control / Mannitol in stored blood vs control / Pyruvate produced vs control: over 42 days
# Experimental: In this example, the glyocotic metabolic mechanism was tested in stored blood. […] The main metabolic pathway of RBC is glycolysis and is primarily fueled by glucose. Glucose enters a RBC and is metabolized to produce ATP, and also pyruvate which in turn is converted to lactate. […] This pathway serves primarily to reduce nicotinamide adenine dinucleotide phosphate (NADPH). In conjunction with the glutathione reductase/peroxidase system, NADPH maintains the sulfhydryl groups of globin in their reduced state.
# In order to test RBC metabolism, four sets of stored RBCs were tested: RBCs treated with NO releasing nanoparticles (NOnp), RBCs treated with the S-nitrosothiol derivative of glutathione (GSNO), RBCs treated with NONOates (DTPANO), and a control group of RBCs that were not supplemented. GSNO, which due to its long half-life and ability to transnitrosate, has greater antimicrobial activity then NOnp alone against clinical isolates of gram positive and negative multi drug resistant pathogens. Given both the extended bioactive lifetime of GSNO compared to free NO and the potential differences in target tissues/cells and the success achieved with the NO releasing nanoparticle platform, it was undertaken to produce nanoparticles that were similar in character and structure, but with the capability of either releasing GSNO species or transferring NO via S-transnitrosation. FIGS. 8(A)-(D) show the behavior of various elements of the first step of the glycotic pathway over a period of 42 days. […] FIGS. 8(B)-(D) show the amount of adenine, mannitol, and citrate respectively. […] This is important because these components help RBCs resynthesize the energy carrier adenosine triphosphate (ATP). ATP is a key component in extending the shelf life of stored blood. FIGS. 9(A)-(D) depict the key components in the next step of the glycotic pathway, wherein ATP is created and pyruvate is produced and then converted to lactate. The longevity of stored blood increases as more ATP is produced and less pyruvate and lactate is produced. […] Overall, NOnp and GSNO treated RBC are much slower to lose initial metabolic markers of RBC health than both untreated RBCs and those treated with NONOates.
# stored blood = experiment: Buildup of methemoglobin, plasma nitrite and plasma nitrate in stored blood over six weeks; format: cell-based; details: over a period of six weeks
# Experimental: In this example, the buildup of methemoglobin (MetHb), plasma nitrite and plasma nitrate was also measured over a period of six weeks. […] Nitrite levels were measured because higher nitrate levels are associated with positive RBC health and functionality. […] NO supplementation limits the progressive loss of nitrite and nitrate in RBCs, and such loss of nitrite and nitrate has been correlated with an increase in oxidative damage.
Glucose-6-phosphate dehydrogenase (G6PD) vs control (stored RBCs [2]; during storage),Glyceraldehyde 3-phosphate dehydrogenase (GAPDH) vs control (stored RBCs [2]; during storage),Hexokinase (HK) vs control (stored RBCs [2]; during storage),Phosphofructokinase (PFK) vs control (stored RBCs [2]; during storage),Pyruvate kinase (PK) vs control (stored RBCs [2]; during storage),Compound,"2,3 DPG level during storage (stored RBCs [1])",Levels of free hemoglobin (hemolysis) during storage (stored RBCs [1]),Potassium levels during storage (stored RBCs [1]),pH (acidification) during storage (stored RBCs [1]),Microparticle formation in stored blood (stored RBCs [1]),RBC flexibility (RBC),ATP produced vs control (stored RBCs [2]),Adenine in stored blood vs control (stored RBCs [2]),Citrate in stored blood vs control (stored RBCs [2]),Glucose in stored blood vs control (stored RBCs [2]),Lactate produced vs control (stored RBCs [2]),Mannitol in stored blood vs control (stored RBCs [2]),Pyruvate produced vs control (stored RBCs [2]),Methemoglobin (MetHb) formation (stored blood)
,,,,,NCCCN(CCCN)/[N+]([O-])=N/O [DPTANO],"prevented 2,3 DPG rapid decrease","either did not significantly differentiate from the control, or performed worse","either did not significantly differentiate from the control, or performed worse","either did not significantly differentiate from the control, or performed worse",faired similarly or worse than the control,did not vary substantially from that of untreated blood,only produces slightly less than the control,retained higher amounts of each component than the control,retained higher amounts of each component than the control,maintaining slightly higher amounts of glucose,the control produces much more pyruvate and lactate,retained higher amounts of each component than the control,the control produces much more pyruvate and lactate,more met Hb formation; also recorded: increased the formation of met-hemoglobin
maintained or even enhanced,maintained or even enhanced,maintained or even enhanced,maintained or even enhanced,maintained or even enhanced,"N[C@@H](CCC(=O)N[C@@H](CSN=O)C(=O)NCC(=O)O)C(=O)O [GSNO, S-nitrosothiol derivative of glutathione]","prevented 2,3 DPG rapid decrease",did not increase the levels of free hemoglobin,slowed down potassium levels,prevented rapid acidification,reduced microparticle formation,remained more flexible than untreated and DPTANO treated blood,produce more ATP than the control,retained higher amounts of each component than the control,retained higher amounts of each component than the control,maintaining slightly higher amounts of glucose,the control produces much more pyruvate and lactate,retained higher amounts of each component than the control,the control produces much more pyruvate and lactate,did not generate significantly more MetHb than the control
